Test results from patent US6204220A, “Substituted 2-oxo-3-alkynoic acids and methods of use thereof” (Rutgers, The State University of New Jersey, priority 1999, dated 2001).
Where two headings read alike, the source gives them in different places.

Key:
[1] = target: T1, Pyruvate decarboxylase from Saccharomyces cerevisiae (Saccharomyces cerevisiae, UniProt P06169); experiment: Inactivation of pyruvate decarboxylase (PDC); assay type: biochemical
T1 construct: made in house; host or cells: E. coli
T1 sequence (P06169 2-563 limits assumed): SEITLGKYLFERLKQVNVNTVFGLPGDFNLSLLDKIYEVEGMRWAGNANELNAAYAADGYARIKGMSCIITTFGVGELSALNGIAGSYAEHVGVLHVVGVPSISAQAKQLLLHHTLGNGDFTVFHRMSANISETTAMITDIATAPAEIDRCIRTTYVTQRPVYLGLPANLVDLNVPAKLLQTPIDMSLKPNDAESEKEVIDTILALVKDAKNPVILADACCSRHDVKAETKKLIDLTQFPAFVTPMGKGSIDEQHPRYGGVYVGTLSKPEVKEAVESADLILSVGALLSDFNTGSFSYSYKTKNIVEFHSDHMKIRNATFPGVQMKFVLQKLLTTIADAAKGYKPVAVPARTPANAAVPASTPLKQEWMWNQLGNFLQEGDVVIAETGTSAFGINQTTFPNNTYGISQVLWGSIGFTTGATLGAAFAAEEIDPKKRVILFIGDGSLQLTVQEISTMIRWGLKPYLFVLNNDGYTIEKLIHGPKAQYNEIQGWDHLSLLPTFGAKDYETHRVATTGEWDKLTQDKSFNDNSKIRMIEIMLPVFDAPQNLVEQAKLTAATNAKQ
Protocol: Pyruvate decarboxylase from Saccharomyces cerevisiae was overexpressed in E. coli (Baburina et al., 1994), then purified according to Farrenkopf & Jordan (1992). It was assayed spectrophotometrically by coupling to alcohol dehydrogenase (Holzer et al., 1960).

PDHc [2] = target: T2, PDHc (Escherichia coli, UniProt P0AFG8); experiment: Steady-state kinetics of PDHc, Km / [S]0.5 for pyruvate; assay type: biochemical; parameters: made in house; host or cells: E. coli JRG1342 (PDHc null), Ptac plasmid pGS523; conditions: 3-lip PDHc; 0.22 mM without reagent
Protocol: (§1) Activity and related measurements on PDHc. The overall enzymatic reaction of the PDH complex was assayed using a Varian DMS 300 spectrophotometer or the Cobas Bio (Roche Diagnostics, Somerville, N.J.) automated centrifugal analyzer, monitoring the pyruvate-dependent reduction of NAD^+ at 340 nm. The reaction medium contained in 1 mL (DMS 300) or 0.25 mL (Cobas-Bio) test volume: 0.1 M Tris-HCl, pH 8.0; 1 mM MgCl2; 2 mM sodium pyruvate; 2.5 mM NAD^+; 0.052-0.2 mM coenzyme A; 0.2 mM ThDP; and 2.6 mM DTT at 27° C. The reaction was initiated either by adding enzyme to a mixture of all other components, or by adding CoA.
The Michaelis-Menten constants (Km) for native PDHc and PDHc treated with 2-oxo-3-butynoic acid and 2-oxo-3-heptynoic acid were obtained by fitting steady-state rates at different pyruvate concentrations to the Hill equation and the logarithmic form of the Hill equation using the Delta Graph (Pro4) computer program.

PDHc [3] = target: T2, PDHc; experiment: Inactivation of 1-lip and 3-lip PDH complexes by 2-oxo-3-alkynoic acids (overall NADH assay); assay type: biochemical, E. coli; parameters: made in house; host or cells: E. coli JRG1342 (PDHc null) with Ptac plasmid pGS501 (1-lip) or pGS523 (3-lip); conditions: for protection of PDHc from inactivation by pyruvate: 5 mM pyruvate, 1 mM ThDP, 5 mM MgCl2; for protection of PDHc from inactivation by pyruvate / inactivation of PDHc in the absence of ThDP: 3-lip (heptynoic) or 1-lip (butynoic) PDHc; for kapp, slow phase of inactivation / At (residual activity): 1-lip PDHc
Source text: Bacterial strains and plasmids for PDHc. Derivatives of the PDHc null strain, E. coli JRG1342 contained Ptac expression plasmids encoding PDHc with E2 chains bearing three lipoyl domains (3-lip PDHc; pGS523, the wild type parental complex), or a single lipoyl domain in each E2 subunit (1-lip PDHc; pGS501), and variant 1-lip PDH complexes with mutations in the E1 gene leading to C259S (pGS457) and C259N (pGS596) substitutions (Machado et al., 1992; Machado, 1993).
Purification of PDHc. Cultures for purification of 1-lip and 3-lip PDH complexes were grown at 37° C. in LB medium containing glucose (0.2%) and ampicillin (50 μg/mL). The PDH complexes were induced by adding IPTG to 60 μM as described by Russell et al. (1992). Cells were disrupted by ultrasonic treatment after preincubation with lysozyme (0.6 mg/mL final concentration) for 15 min. The PDHc was sedimented by ultracentrifugation (100,000×g for 3 h) and further purified by chromatography on a
Sephacryl S-400 HR column. Fractions containing PDHc were pooled and treated with ammonium sulfate to 70% saturation. The enzyme was dissolved in buffer A (20 mM potassium phosphate, pH 7.8, 2 mM Na2 EDTA, 1 mM PMSF, and 1 mM benzamidine.HCl) then dialyzed against the same buffer. The PDH complexes were stored in buffer A at -20° C.
as §1
One unit of activity is defined as the amount of NADH produced (μmol) per min per mg protein. The activity of resolved E1 was measured after reconstitution with excess E2-E3 subcomplex using the NADH assay for PDHc activity.
Inactivation of 1-lip and 3-lip PDH complexes and resolved E1 component by 2-oxo-3-alkynoic acids. Intact 1-lip or 3-lip PDH complexes (0.050-0.1 mg) or resolved E1 component (0.05-0.09 mg) were incubated in the dark with 5 mM MgCl2, […] of 2-oxo-3-alkynoic acids in 20 mM KH2 PO4 buffer, pH 7.5 at room temperature in a total volume 0.5 mL. The initial activity (100%) was assayed prior to the addition of 2-oxo-3-alkynoic acids. Samples (50 μL) were withdrawn periodically and diluted into 1 mL of assay solution, containing all components necessary for assay of the overall activity. The activity of untreated enzyme was stable during the time of inactivation.

[4] = PDC, catalytic site, read-out: Ki,c

C#CC(=O)C(=O)O [2-oxo-3-butynoic acid, 2-Oxo-3-butynoic acid]
inhibition / inactivation of PDC (in words) [1]: irreversibly inactivates | saturation by inhibitor ([1]; PDC): no | Ki [1, 4]: 2110 µM | Ki ([1]; PDC, read-out: Ki): 1100 µM | kinact ([1]; PDC, read-out: first order rate constant of inactivation (ki) (converted)): 0.0009 s⁻¹ | kinact ([1]; PDC, read-out: ki (converted)): 0.00141 s⁻¹ | kinact/KI ([1]; read-out: kc/Ki,c, PDC): 0.667 M⁻¹ s⁻¹ | kinact/KI ([1]; read-out: ki/Ki, PDC): 0.817 M⁻¹ s⁻¹ | [S]0.5 for pyruvate in the presence of / after treatment with inhibitor (PDHc [2]): 0.262 ± 0.069 mM | Ki (PDHc [3]): 7.9 µM | inhibition / inactivation of PDHc (in words) (PDHc [3]): irreversibly inactivates | k for inactivation of PDHc (PDHc [3]; 0.11 mM inhibitor): 0.69 min⁻¹ | protection of PDHc from inactivation by pyruvate (PDHc [3]): partially protected | kapp, slow phase of inactivation (PDHc [3]; 0.1 mM inhibitor): 0.062 min⁻¹ | kapp, slow phase of inactivation (PDHc [3]; 0.5 mM inhibitor): 0.053 min⁻¹ | kapp, slow phase of inactivation (PDHc [3]; 1.0 mM inhibitor): 0.056 min⁻¹ | At (residual activity) (PDHc [3]; absence of pyruvate): 20% | At (residual activity) (PDHc [3]; presence of 5 mM pyruvate): 60% | inactivation of PDHc in the absence of ThDP (PDHc [3]): partial inactivation | extent of inactivation (PDHc [3]; 3-lip PDHc): 99.62% | restoration of activity after dilution (PDHc [3]; 3-lip PDHc, 20-fold dilution, 50 min incubation in overall reaction mixture): no restoration of activity | PDHc activity at new plateau, of original activity (PDHc [3]; after a fresh portion of inhibitor was added): 6-8% | PDHc activity at plateau (PDHc [3]; first portion of inhibitor, residual activity): about 30% | kinact/KI (PDHc [3]; pH 7.5, second-order rate constant for inactivation, read-out: ki/Ki PDHc (converted)): 1730 M⁻¹ s⁻¹ | Ki (PDHc [3]; read-out: Ki PDHc, PDHc (1-lip PDHc)): 7.9 µM

CCCC#CC(=O)C(=O)O [2-oxo-3-heptynoic acid, 2-Oxo-3-heptynoic acid]
inhibition / inactivation of PDC (in words) [1]: inhibit | saturation by inhibitor ([1]; PDC): yes | saturation by inhibitor ([1]; PDC (+50 mM pyruvamide)): yes | Ki ([1]; PDC (+50 mM pyruvamide), read-out: Ki,c): 59.7 µM | Ki ([1]; PDC (+50 mM pyruvamide), read-out: Ki,r): 382 µM | kinact ([1]; PDC (+50 mM pyruvamide), read-out: ki (converted)): 0.00523 s⁻¹ | Ki [1, 4]: 447 µM | Ki ([1]; PDC, regulatory site, read-out: Ki,r): 921 µM | kinact ([1]; PDC, read-out: ki (converted)): 0.01 s⁻¹ | kinact/KI ([1]; read-out: kc/Ki,c, PDC): 22.5 M⁻¹ s⁻¹ | kinact/KI ([1]; read-out: kc/Ki,c, PDC (+50 mM pyruvamide)): 87.7 M⁻¹ s⁻¹ | [S]0.5 for pyruvate in the presence of / after treatment with inhibitor (PDHc [2]): 0.234 ± 0.025 mM | Ki (PDHc [3]): 2850 µM | protection of PDHc from inactivation by pyruvate (PDHc [3]): failed to protect | inactivation of PDHc in the absence of ThDP (PDHc [3]): still inactivated to the same extent, but at a slower rate | protection from inactivation by DTT (PDHc [3]; 3-lip PDHc, 5 mM DTT): partial protection | kinact/KI (PDHc [3]; pH 7.5, read-out: ki/Ki PDHc): 2.83 M⁻¹ s⁻¹ | reactivation of inactivated 3-lip PDHc by hydroxylamine (PDHc [3]; prolonged incubation): failure to reactivate
